Earlier results as cited in US6576256B2, “Treatment of patients at elevated cardiovascular risk with a combination of a cholesterol-lowering agent, an inhibitor of the renin-angiotensin system, and aspirin” (priority 2001, dated 2003).

How the values were obtained:
blood pressure = settings: relative to angiotensin II
[1] = system: patients at risk for cardiovascular events; settings: daily administration of low doses (approximately 80 mg)

Row | Compound | hypertensive activity as share of that of angiotensin II (blood pressure) | reduction of second heart attacks, strokes, and cardiovascular deaths [1]
1 | angiotensin I (DRVYIHPFHL; Angiotensin-1; UniProt P01019 25-34, looked up) [decapeptide formed by renin acting on angiotensinogen] | about 1% | 
2 | CC(=O)Oc1ccccc1C(=O)O [aspirin, acetylsalicylic acid] |  | at least 25%
